Source: BigSolDB 2.1

Cc1cnc(C(=O)O)cn1
solubility (mole fraction)
Settings | 273.15 K | 278.15 K | 283.15 K | 288.15 K | 293.15 K | 298.15 K | 303.15 K | 308.15 K | 313.15 K
in 1,4-dioxane | – | – | – | 1.88e-05 | 2.16e-05 | 2.48e-05 | 2.84e-05 | 3.29e-05 | 3.84e-05
in 2-butanone | 5.8e-06 | 6.8e-06 | 8e-06 | 9.3e-06 | 1.06e-05 | 1.21e-05 | 1.39e-05 | 1.58e-05 | 1.79e-05
in acetone | 6.7e-06 | 8e-06 | 9.3e-06 | 1.07e-05 | 1.21e-05 | 1.39e-05 | 1.56e-05 | 1.78e-05 | 2e-05
in acetonitrile | 2.48e-06 | 2.92e-06 | 3.44e-06 | 4.01e-06 | 4.6e-06 | 5.34e-06 | 6.05e-06 | 6.88e-06 | 7.79e-06
in ethanol | 1.09e-05 | 1.27e-05 | 1.49e-05 | 1.71e-05 | 1.97e-05 | 2.25e-05 | 2.57e-05 | 2.93e-05 | 3.33e-05
in ethyl acetate | 4.31e-06 | 5.04e-06 | 5.82e-06 | 6.63e-06 | 7.5e-06 | 8.4e-06 | 9.45e-06 | 1.07e-05 | 1.2e-05
in isopropanol | 7.8e-06 | 9.1e-06 | 1.04e-05 | 1.19e-05 | 1.36e-05 | 1.56e-05 | 1.78e-05 | 2.03e-05 | 2.28e-05
in methanol | 8.5e-06 | 1e-05 | 1.16e-05 | 1.36e-05 | 1.56e-05 | 1.77e-05 | 2.01e-05 | 2.29e-05 | 2.57e-05
in n-butanol | 9.4e-06 | 1.08e-05 | 1.25e-05 | 1.43e-05 | 1.65e-05 | 1.9e-05 | 2.19e-05 | 2.51e-05 | 2.87e-05
in n-propanol | 1e-05 | 1.17e-05 | 1.36e-05 | 1.58e-05 | 1.82e-05 | 2.07e-05 | 2.34e-05 | 2.68e-05 | 3.06e-05
in toluene | 9.7e-07 | 1.1e-06 | 1.25e-06 | 1.42e-06 | 1.65e-06 | 1.89e-06 | 2.18e-06 | 2.5e-06 | 2.89e-06
in water | 3.32e-06 | 3.83e-06 | 4.46e-06 | 5.16e-06 | 5.86e-06 | 6.74e-06 | 7.7e-06 | 8.83e-06 | 1.01e-05
